The source of these data is EPA's ToxValDB 9.5 (doi:10.2903/j.efsa.2010.1445).

Where only a bound is given, the exact number is not on record here.

The test system of one data set is Apis mellifera. Conditions: acute; duration: 48 hours; dermal; mortality.
For a further data set, the system named is Coturnix coturnix. Conditions: for LD50: acute, oral, mortality.
A further data set has as its system Typhlodromus pyri. Conditions: not reported; mortality.
For another data set, the system named is Pimephales promelas. Conditions: chronic/long-term; duration: 33 days.
In another data set the test system is Oncorhynchus mykiss. Conditions: acute; duration: 96 hours; mortality.
The test system of a further data set is Rattus norvegicus. Conditions: acute; oral; mortality.
In another data set the test system is Daphnia magna. Conditions: chronic/long-term; duration: 21 days.
Another data set relates to Lepomis macrochirus. Conditions: acute; duration: 96 hours; mortality.
For a further data set, the system named is Tagia sp. Conditions: acute; mortality.
A further data set relates to Oryctolagus sp. Conditions: developmental; development.
For data set [1] the following is noted: chronic/long-term; development.
In another data set the test system is Anatidae. Conditions: for LD50: oral, mortality.

In general, NOAEL refers to the highest tested level that showed no adverse finding. As for `N#CCNC(=O)c1cnccc1C(F)(F)F` [Flonicamid], the LD50 with Apis mellifera was greater than 51.1 µg/piece; in the data set on Coturnix coturnix (M/F) it was greater than 2000 mg/kg; in the data set with Coturnix coturnix (diet), greater than 411 mg/kg-day; with Rattus norvegicus, 884 mg/kg; in the data set with Anatidae (acute, unspecified, F) it was 1590 mg/kg; with Anatidae (acute, unspecified, M), 2620 mg/kg. For the same compound, in the data set on Anatidae (short-term, feed), the LD50 was greater than 302 mg/kg-day. For the same compound, the NOEL with Coturnix coturnix (reproduction developmental) was determined as 90 mg/kg-day; in data set [1], 25 mg/kg-day; in the data set on Anatidae (reproductive) it was 59 mg/kg-day. This compound also returned an LEL in the data set on Typhlodromus pyri of 80 g/ha. In addition, the NOEC was 10 mg/L with Pimephales promelas; 3.1 mg/L in the data set with Daphnia magna; 25 mg/L in the data set on Bibionidae (chronic/long-term, duration: 28 days). For the same compound, the LC50 was greater than 100 µg/mL with Oncorhynchus mykiss; greater than 100 µg/mL in the data set on Lepomis macrochirus; greater than 1000 mg/kg in the data set on Tagia sp.; greater than 200 µg/mL in the data set with Bibionidae (acute, duration: 48 hours, mortality). The no observed adverse effect level (NOAEL) in the data set on Oryctolagus sp. was 2.5 mg/kg-day.
